In the supplement of paper PMC11451515:

Tested on: SEM cells
Assay: cell viability relative to DMSO control; higher = less cytotoxic
Conditions: 48 h
In short: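 Three leukemia lines were tested: NOMO1 and SEM at 500 cells/well and P12-Ichikawa at 1000 cells/well. Each was adapted for at least four passages in each medium and seeded in 5 μl in 1536-well plates, and library compounds in DMSO were pin-dosed from 47 μM to 0.79 nM in 11 threefold steps. After 48 h at 37°C, CellTiter-Glo One luminescence was read. Viability is a percentage relative to DMSO wells on each plate, with cell-free wells as background.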

[1] = HPLM + 10% dialyzed FBS, 0.000781 µM
[2] = HPLM + 10% dialyzed FBS, 0.00234 µM
[3] = HPLM + 10% dialyzed FBS, 0.00702 µM
[4] = HPLM + 10% dialyzed FBS, 0.0211 µM
[5] = HPLM + 10% dialyzed FBS, 0.0632 µM
[6] = HPLM + 10% dialyzed FBS, 0.19 µM
[7] = HPLM + 10% dialyzed FBS, 0.569 µM
[8] = HPLM + 10% dialyzed FBS, 1.71 µM
[9] = HPLM + 10% dialyzed FBS, 5.12 µM
[10] = HPLM + 10% dialyzed FBS, 15.4 µM
[11] = HPLM + 10% dialyzed FBS, 46.1 µM
[12] = RPMI 5 mM glucose + 10% FBS, 0.000781 µM
[13] = RPMI 5 mM glucose + 10% FBS, 0.00234 µM
[14] = RPMI 5 mM glucose + 10% FBS, 0.00702 µM
[15] = RPMI 5 mM glucose + 10% FBS, 0.0211 µM
[16] = RPMI 5 mM glucose + 10% FBS, 0.0632 µM
[17] = RPMI 5 mM glucose + 10% FBS, 0.19 µM
[18] = RPMI 5 mM glucose + 10% FBS, 0.569 µM
[19] = RPMI 5 mM glucose + 10% FBS, 1.71 µM
[20] = RPMI 5 mM glucose + 10% FBS, 5.12 µM
[21] = RPMI 5 mM glucose + 10% FBS, 15.4 µM
[22] = RPMI 5 mM glucose + 10% FBS, 46.1 µM
[23] = RPMI 5 mM glucose + 10% dialyzed FBS, 0.000781 µM
[24] = RPMI 5 mM glucose + 10% dialyzed FBS, 0.00234 µM
[25] = RPMI 5 mM glucose + 10% dialyzed FBS, 0.00702 µM
[26] = RPMI 5 mM glucose + 10% dialyzed FBS, 0.0211 µM
[27] = RPMI 5 mM glucose + 10% dialyzed FBS, 0.0632 µM
[28] = RPMI 5 mM glucose + 10% dialyzed FBS, 0.19 µM
[29] = RPMI 5 mM glucose + 10% dialyzed FBS, 0.569 µM
[30] = RPMI 5 mM glucose + 10% dialyzed FBS, 1.71 µM
[31] = RPMI 5 mM glucose + 10% dialyzed FBS, 5.12 µM
[32] = RPMI 5 mM glucose + 10% dialyzed FBS, 15.4 µM
[33] = RPMI 5 mM glucose + 10% dialyzed FBS, 46.1 µM

SMILES	cell viability [1] [%]	cell viability [2] [%]	cell viability [3] [%]	cell viability [4] [%]	cell viability [5] [%]	cell viability [6] [%]	cell viability [7] [%]	cell viability [8] [%]	cell viability [9] [%]	cell viability [10] [%]	cell viability [11] [%]	cell viability [12] [%]	cell viability [13] [%]	cell viability [14] [%]	cell viability [15] [%]	cell viability [16] [%]	cell viability [17] [%]	cell viability [18] [%]	cell viability [19] [%]	cell viability [20] [%]	cell viability [21] [%]	cell viability [22] [%]	cell viability [23] [%]	cell viability [24] [%]	cell viability [25] [%]	cell viability [26] [%]	cell viability [27] [%]	cell viability [28] [%]	cell viability [29] [%]	cell viability [30] [%]	cell viability [31] [%]	cell viability [32] [%]	cell viability [33] [%]
O=C(O)CCC1CCC(c2cc(F)ccc2F)([S+](=O)([O-])c2ccc(Cl)cc2)CC1 (stereo not drawn)	105	93.5	110	114	115	115	109	117	119	125	116	104	110	117	126	112	114	114	104	110	113	81.6	103	105	115	122	122	128	109	116	123	111	106
CN[C@H]1CCC2=CC(=C(OC)C(=C2C/3=C/C=C(OC)\C(=O)/C=C13)OC)OC	108	102	64.8	23	24.1	28.6	23.3	18.4	13.4	12	4.23	123	122	85	16.8	20.8	21.6	18	14.3	9.18	7.14	2.84	97.1	88.9	62.8	17.8	21.4	23.9	20.4	12.6	9.12	7.84	3.33
CC1=C(C)C(=O)C(C(CCCCCC(=O)O)c2ccccc2)=C(C)C1=O (stereo not drawn)	63.6	70.7	56.2	69.2	65.6	78.1	71.6	64.6	59.7	44.7	41	77.4	92	73.4	79.9	75.1	77.4	59	57.3	35.1	26.7	31.9	54.8	74.5	57.1	69.9	75.2	97.2	58.6	76.6	46.5	48.6	24.9
CC(C)OC(=O)C(C(=O)OC(C)C)=C1S\C=C/S1	112	119	128	125	120	123	117	123	118	70.1	113	114	135	122	125	122	133	141	131	116	50.9	109											
Cc1onc(-c2ccccc2Cl)c1C(=O)N[C@@H]1C(=O)N2[C@@H]1SC(C)(C)[C@@H]2C(=O)[O-]	82.3	77.1	89.4	97.7	72	88.2	83.5	81.7	80.2	84.8	90	117	110	117	109	101	102	83.8	116	110	99.4	85.7	102	110	119	115	107	115	96.3	113	99.9	104	108
OC[C@H]1O[C@H]([C@H](O)[C@@H]1O)N2\C=C/C(=O)NC2=O	107	107	107	115	123	124	122	103	115	92.7	90.7	96.8	105	102	102	107	91.9	114	78.3	93.2	78.3	86.1	101	110	103	106	92.8	117	108	91	105	94.3	88.3
CC(C)C1NC(=O)C(NC(=O)C2=C3\N=C\4/C(=C(C)\C(=O)\C(=C4C(=O)NC5C(C)OC(=O)C(C(C)C)N(C)C(=O)CN(C)C(=O)C6CCCN6C(=O)C(NC5=O)C(C)C)N)OC3=C(C)C=C2)C(C)OC(=O)C(C(C)C)N(C)C(=O)CN(C)C(=O)C7CCCN7C1=O (stereo not drawn)	8.02	8.45	8.63	7.17	5.33	4.97	5.75	5.02	3.36	1.81	1.57	6.55	8.45	7.11	5.21	4.11	3.76	4.54	3.75	2.28	1.15	1.09	6.94	7.82	7.08	7.7	5.11	4.36	5.1	3.89	1.96	2.2	1.26
CCOC(=O)N1CCN(/[N+]([O-])=N/Oc2ccc([N+](=O)[O-])cc2C#N)CC1	85	88.8	86.5	91.4	120	106	109	25.2	15.3	13.6	9.4	104	108	106	109	110	125	114	16	10.6	10.3	7.12	106	92.3	108	107	114	117	104	22.4	12.1	12.2	9.24
